Consider 23 molecules from US20220227707A1, “COMPOUNDS AND COMPOSITIONS FOR TREATING CONDITIONS ASSOCIATED WITH NLRP ACTIVITY” (Novartis AG, priority 2019, published 2022).

As a reminder, the IC50 is the concentration that inhibits the measured activity by half.

For one assay, the system named is IL-1β production in PMA-differentiated THP-1 cells. Nature of the assay: IL-1β production in PMA-differentiated THP-1 cells stimulated with gramicidin (hTHP-1 assay). Particulars: Homo sapiens, THP-1, Average IC50, hTHP-1 assay containing 2% fetal bovine serum; Table 10, class symbols. It counts as cell-based, human. On the procedure: Procedure 1: IL-1β Production in PMA-Differentiated THP-1 Cells Stimulated with Gramicidin
THP-1 cells were purchased from the American Type Culture Collection and sub-cultured according to instructions from the supplier. Cells were cultured in complete RPMI 1640 (containing 10% heat inactivated FBS, penicillin (100 units/ml) and streptomycin (100 μg/ml)), and maintained in log phase prior to experimental setup. Prior to the experiment, compounds were dissolved in dimethyl sulfoxide (DMSO) to generate a 30 mM stock. The compound stock was first pre-diluted in DMSO to 3, 0.34, 0.042 and 0.0083 mM intermediate concentrations and subsequently spotted using Echo550 liquid handler into an empty 384-well assay plate to achieve desired final concentration (e.g. 100, 33, 11, 3.7, 1.2, 0.41, 0.14, 0.046, 0.015, 0.0051, 0.0017 μM). DMSO was backfilled in the plate to achieve a final DMSO assay concentration of 0.37%. The plate was then sealed and stored at room temperature until required.
THP-1 cells were treated with PMA (Phorbol 12-myristate 13-acetate) (20 ng/ml) for 16-18 hours. On the day of the experiment the media was removed and adherent cells were detached with trypsin for 5 minutes. Cells were then harvested, washed with complete RPMI 1640, spun down, and resuspended in RPMI 1640 (containing 2% heat inactivated FBS, penicillin (100 units/ml) and streptomycin (100 μg/ml). The cells were plated in the 384-well assay plate containing the spotted compounds at a density of 50,000 cells/well (final assay volume 50 μl). Cells were incubated with compounds for 1 hour and then stimulated with gramicidin (5 μM) (Enzo) for 2 hours. Plates were then centrifuged at 340 g for 5 min. Cell free supernatant ([…]) was collected using a 96-channel PlateMaster (Gilson) and the production of IL-1β was evaluated by HTRF (cisbio). The plates were incubated for 18 h at 4° C. and read using the preset HTRF program (donor emission at 620 nm, acceptor emission at 668 nm) of the SpectraMax i3x spectrophotometer (Molecular Devices, software SoftMax 6). A vehicle only control and a dose titration of CRID3 (100-0.0017 μM) were run concurrently with each experiment.
Procedure 2: […] Production in PMA-Differentiated THP-1 Cells Stimulated with Gramicidin
THP-1 cells were purchased from the American Type Culture Collection and sub-cultured according to instructions from the supplier. Prior to experiments, cells were cultured in complete RPMI 1640 (containing 10% heat inactivated FBS, penicillin (100 units/ml) and streptomycin (100 μg/ml)), and maintained in log phase prior to experimental setup. Prior to the experiment THP-1 were treated with PMA (Phorbol 12-myristate 13-acetate) (20 ng/ml) for 16-18 hours. Compounds were dissolved in dimethyl sulfoxide (DMSO) to generate a 30 mM stock. On the day of the experiment the media was removed and adherent cells were detached with trypsin for 5 minutes. Cells were then harvested, washed with complete RPMI 1640, spun down, resuspended in RPMI 1640 (containing 2% heat inactivated FBS, penicillin (100 units/ml) and streptomycin (100 μg/ml). The cells were plated in a 384-well plate at a density of 50,000 cells/well (final assay volume 50 μl). Compounds were first dissolved in assay medium to obtain a 5× top concentration of 500 μM. 10 step dilutions (1:3) were then undertaken in assay medium containing 1.67% DMSO. 5× compound solutions were added to the culture medium to achieve desired final concentration (e.g. 100, 33, 11, 3.7, 1.2, 0.41, 0.14, 0.046, 0.015, 0.0051, 0.0017 μM). Final DMSO concentration was at 0.37%. Cells were incubated with compounds for 1 hour and then stimulated with gramicidin (5 μM) (Enzo) for 2 hours. Plates were then centrifuged at 340 g for 5 min. Cell free supernatant (40 μL) was collected using a 96-channel PlateMaster (Gilson) and the production of IL-1β was evaluated by HTRF (cisbio). A vehicle only control and a dose titration of CRID3 (100-0.0017 μM) were run concurrently with each experiment. […]
On to `CC(C)c1cc(Cl)cc(C(C)C)c1NC(=O)NS(=O)(=O)CC(=O)c1ccsc1` [Compound 403], for which the IC50 was in the range of 5 to 30 µM.

`COC(=O)CCS(=O)(=O)NC(=O)Cc1c2c(cc3c1CCC3)CCC2` [Compound 504] returned an IC50 of 1 to 5 µM.

With `CC(C)c1cc(F)cc(C(C)C)c1CC(=O)NS(=O)(=O)Cc1ccc(C(C)(C)O)cc1` [Compound 506], the IC50 is 5 to 30 µM.

In turn, `COC(=O)CCS(=O)(=O)NC(=O)Cc1c(C(C)C)cc(F)cc1C(C)C` [Compound 520, methyl 3-(N-(2-(4-fluoro-2,6-diisopropylphenyl)acetyl)sulfamoyl) propanoate] returned a 50% inhibitory concentration (IC50) of 1 to 5 µM.

The assay is the same for the next values; noted with them: Homo sapiens, THP-1, Average IC50, hTHP-1 assay containing 2% fetal bovine serum; Table 10, numeric values.
Consider `COC(=O)CS(=O)(=O)NC(=O)Cc1c(C(C)C)cc(F)cc1C(C)C` [Compound 501], for which the IC50 is above 100 µM.

Molecule `CC(C)c1cc(F)cc(C(C)C)c1CC(=O)NS(=O)(=O)Cc1cccc(C(C)(C)O)c1` [Compound 502] showed an IC50 above 100 µM.

In turn, `CC(C)c1cc(F)cc(C(C)C)c1CC(=O)NS(=O)(=O)CC(=O)O` [Compound 503] came in with an IC50 above 100 µM.

Molecule `CC(C)c1ncc(CS(=O)(=O)NC(=O)Cc2c(C(C)C)cc(F)cc2C(C)C)s1` [Compound 505] showed an IC50 above 97.1 µM.

`CC(C)c1cc(F)cc(C(C)C)c1CC(=O)NS(=O)(=O)Cc1ccc(CN)cc1` [Compound 507] showed an IC50 above 100 µM.

As to `CC(C)c1cc(F)cc(C(C)C)c1CC(=O)NS(=O)(=O)Cc1cccc(CN)c1` [Compound 508], the IC50 was above 100 µM.

For the molecule `CC(C)c1cc(F)cc(C(C)C)c1CC(=O)NS(=O)(=O)CCCc1ccccc1` [Compound 509], the IC50 is above 30 µM.

`CC(C)c1cc(F)cc(C(C)C)c1CC(=O)NS(=O)(=O)Cc1cccc(C(=O)O)c1` [Compound 510] came in with an IC50 above 100 µM.

As to `CC(C)c1cc(F)cc(C(C)C)c1CC(=O)NS(=O)(=O)Cc1ccccc1` [Compound 511], the IC50 is above 100 µM.

As to `CC(C)c1cc(F)cc(C(C)C)c1CC(=O)NS(=O)(=O)CCCC(=O)O` [Compound 512], the IC50 is above 100 µM.

`COC(=O)CCCS(=O)(=O)NC(=O)Cc1c(C(C)C)cc(F)cc1C(C)C` [Compound 513] came in with an IC50 above 30 µM.

On to `COC(=O)c1cccc(CS(=O)(=O)NC(=O)Cc2c(C(C)C)cc(F)cc2C(C)C)c1` [Compound 514], for which the half-maximal inhibitory concentration (IC50) was above 100 µM.

The molecule `CC(C)c1cc(F)cc(C(C)C)c1CC(=O)NS(=O)(=O)CCC(=O)O` [Compound 515] gave an IC50 above 100 µM.

`CC(C)c1cc(F)cc(C(C)C)c1CC(=O)NS(=O)(=O)CCc1ccccc1` [Compound 516] came in with an IC50 above 30 µM.

The molecule `CC(C)c1cc(F)cc(C(C)C)c1CC(=O)NS(=O)(=O)Cc1ccccc1C(=O)O` [Compound 517] gave an IC50 above 100 µM.

`CC(C)c1cc(F)cc(C(C)C)c1CC(=O)NS(=O)(=O)Cc1ccc(C(=O)O)cc1` [Compound 518] yielded a half-inhibitory concentration (IC50) above 100 µM.

The molecule `CC(C)c1cc(F)cc(C(C)C)c1CC(=O)NS(=O)(=O)Cc1cc(-c2ccccc2)no1` [Compound 519] gave a half-inhibitory concentration (IC50) above 30 µM.

As to `CC(C)c1cc(F)cc(C(C)C)c1CC(=O)NS(=O)(=O)Cc1cccnc1` [Compound 522], the IC50 was above 100 µM.

The molecule `CC(C)c1cc(F)cc(C(C)C)c1CC(=O)NS(=O)(=O)Cc1cnn(C)c1` [Compound 528] returned an IC50 above 30 µM.
